Where two headings read alike, the source gives them in different places.
Columns and labels:
cyclin D1 = assay: Cyclin D1 percentage degradation in Calu-1 cells (immunoblotting); format: cell-based; settings: 16 hours
In short: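 Cyclin D1 degradation was assessed by western blot. Clarified lysates, obtained by RIPA lysis with inhibitors and centrifugation at 13,000 rpm, were normalized by BCA protein assay and separated by SDS-PAGE. Bands were detected with Western ECL Substrate on a Bio-Rad ChemiDoc MP Imaging system and quantified in Image Lab software to derive percentage degradation.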

CDK4 = target: T1, CDK4 (Homo sapiens, UniProt P11802); assay: CDK4 percentage degradation in Calu-1 cells (immunoblotting); format: cell-based; settings: for inhibition at 0.2 µM: read-out: CDK4 Degradation (200 nM); for inhibition at 10 µM: read-out: CDK4 Degradation (10 μM)
T1 construct: endogenous in cells; host or cells: Calu-1
In short: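 CDK4 degradation was measured by immunoblotting. Cells were washed in cold PBS and lysed in RIPA buffer with inhibitors for 30 min at 4° C., then spun at 13,000 rpm to clear. After BCA protein determination, lysates were heated at 99° C. for 5 min in Laemmli buffer, resolved on SDS-PAGE, imaged on a ChemiDoc MP with ECL substrate, and band intensities quantified.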

T1 sequence (P11802 2-303 limits assumed): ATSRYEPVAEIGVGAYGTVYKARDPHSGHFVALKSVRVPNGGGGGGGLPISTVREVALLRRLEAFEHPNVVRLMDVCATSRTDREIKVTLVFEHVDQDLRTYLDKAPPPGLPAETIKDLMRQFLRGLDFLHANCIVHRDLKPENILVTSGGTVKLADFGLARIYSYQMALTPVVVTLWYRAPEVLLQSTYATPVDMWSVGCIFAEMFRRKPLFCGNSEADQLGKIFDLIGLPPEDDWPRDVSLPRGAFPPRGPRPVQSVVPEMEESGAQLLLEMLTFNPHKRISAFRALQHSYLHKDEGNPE
T1 sequence (P24385 whole entry partner): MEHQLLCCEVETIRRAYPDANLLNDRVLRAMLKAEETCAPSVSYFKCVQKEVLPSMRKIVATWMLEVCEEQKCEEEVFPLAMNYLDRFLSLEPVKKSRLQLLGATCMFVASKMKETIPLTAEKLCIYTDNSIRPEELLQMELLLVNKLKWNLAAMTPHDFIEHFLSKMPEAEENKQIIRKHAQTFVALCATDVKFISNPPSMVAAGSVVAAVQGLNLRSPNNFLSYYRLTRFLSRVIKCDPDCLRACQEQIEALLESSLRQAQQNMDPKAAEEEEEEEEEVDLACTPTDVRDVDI
T1 sequence (Q16531 2-1140 limits assumed, further chain): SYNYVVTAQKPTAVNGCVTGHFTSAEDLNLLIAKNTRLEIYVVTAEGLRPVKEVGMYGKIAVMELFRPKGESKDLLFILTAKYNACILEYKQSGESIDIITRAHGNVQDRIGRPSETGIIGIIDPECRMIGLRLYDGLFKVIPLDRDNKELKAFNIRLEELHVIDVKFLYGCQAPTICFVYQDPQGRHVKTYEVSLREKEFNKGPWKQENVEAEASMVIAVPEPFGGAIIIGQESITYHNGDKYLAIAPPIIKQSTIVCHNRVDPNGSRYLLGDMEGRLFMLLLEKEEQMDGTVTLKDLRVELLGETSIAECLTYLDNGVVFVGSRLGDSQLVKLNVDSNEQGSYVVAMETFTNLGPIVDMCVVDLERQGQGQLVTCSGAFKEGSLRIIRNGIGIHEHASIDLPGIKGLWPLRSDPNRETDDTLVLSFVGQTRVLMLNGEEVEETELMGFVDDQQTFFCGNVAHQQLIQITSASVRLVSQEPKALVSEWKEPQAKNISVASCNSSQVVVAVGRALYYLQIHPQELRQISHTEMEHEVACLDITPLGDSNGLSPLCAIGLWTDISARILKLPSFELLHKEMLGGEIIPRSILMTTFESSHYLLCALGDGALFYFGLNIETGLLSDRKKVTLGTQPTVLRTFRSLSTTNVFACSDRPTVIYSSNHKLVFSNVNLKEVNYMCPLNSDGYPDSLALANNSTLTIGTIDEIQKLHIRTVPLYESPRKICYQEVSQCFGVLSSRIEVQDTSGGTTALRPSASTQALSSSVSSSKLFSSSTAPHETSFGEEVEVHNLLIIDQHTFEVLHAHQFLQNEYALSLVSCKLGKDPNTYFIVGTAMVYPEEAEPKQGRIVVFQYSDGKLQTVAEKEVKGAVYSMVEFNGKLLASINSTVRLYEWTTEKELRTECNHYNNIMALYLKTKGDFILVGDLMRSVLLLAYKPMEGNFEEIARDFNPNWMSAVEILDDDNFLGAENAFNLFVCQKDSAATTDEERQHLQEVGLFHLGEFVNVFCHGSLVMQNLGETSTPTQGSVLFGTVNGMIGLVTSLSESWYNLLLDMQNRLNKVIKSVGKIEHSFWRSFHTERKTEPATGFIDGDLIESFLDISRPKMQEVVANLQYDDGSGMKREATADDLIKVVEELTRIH

CC(=O)c1c(C)c2cnc(Nc3ccc(N4CCN(CCNCCCCCCCNc5cccc(C(=O)Nc6nc(C)c(C)s6)c5C)CC4)cn3)nc2n(C2CCCC2)c1=O [CPD-188, 3-((7-((2-(4-(6-((6-Acetyl-8-cyclopentyl-5-methyl-7-oxo-7,8-dihydropyrido[2,3-d]pyrimidin-2-yl)amino)pyridin-3-yl)piperazin-1-yl)ethyl)amino)heptyl)amino)-N-(4,5-dimethylthiazol-2-yl)-2-methylbenzamide]
CyclinD1 Degradation (200 nM) (cyclin D1): D (protein percentage degradation <30%)
inhibition at 0.2 µM (CDK4; Calu-1, 16 h): < 30%

CC(=O)c1c(C)c2cnc(Nc3ccc(N4CCN(CC(=O)NCCCCCCCNC(=O)COc5ccc(C(=O)Nc6ncc(C)s6)c(C)c5)CC4)cn3)nc2n(C2CCCC2)c1=O [CPD-037, 4-(2-((7-(2-(4-(6-((6-Acetyl-8-cyclopentyl-5-methyl-7-oxo-7,8-dihydropyrido[2,3-d]pyrimidin-2-yl)amino)pyridin-3-yl)piperazin-1-yl)acetamido)heptyl)amino)-2-oxoethoxy)-2-methyl-N-(5-methylthiazol-2-yl)benzamide]
CyclinD1 Degradation (200 nM) (cyclin D1): D (protein percentage degradation <30%)
inhibition at 0.2 µM (CDK4; Calu-1 cells, 200 nM, 16 hours): < 30%

Cc1nc(NC(=O)c2ccccc2NC(=O)CCCNC(=O)CN2CCN(Cc3ccc(Nc4ncc(F)c(-c5cc(F)c6nc(C)n(C(C)C)c6c5)n4)nc3)CC2)sc1C [CPD-274, N-(4,5-Dimethylthiazol-2-yl)-2-(4-(2-(4-((6-((5-fluoro-4-(4-fluoro-1-isopropyl-2-methyl-1H-benzo[d]imidazol-6-yl)pyrimidin-2-yl)amino)pyridin-3-yl)methyl)piperazin-1-yl)acetamido)butanamido)benzamide]
CyclinD1 Degradation (10 μM) (cyclin D1): B (protein percentage degradation < 80%, and >= 50%)
inhibition at 10 µM (CDK4; Calu-1 cells, 16 hours): < 30%

CC(=O)c1c(C)c2cnc(Nc3ccc(N4CCN(CC(=O)NCCCCCCNc5ccc(C)c(C(=O)Nc6nc(C)c(C)s6)c5)CC4)cn3)nc2n(C2CCCC2)c1=O [CPD-094, 5-((6-(2-(4-(6-((6-Acetyl-8-cyclopentyl-5-methyl-7-oxo-7,8-dihydropyrido[2,3-d]pyrimidin-2-yl)amino)pyridin-3-yl)piperazin-1-yl)acetamido)hexyl)amino)-N-(4,5-dimethylthiazol-2-yl)-2-methylbenzamide]
CyclinD1 Degradation (200 nM) (cyclin D1): D (protein percentage degradation <30%)
inhibition at 0.2 µM (CDK4; Calu-1 cells, 200 nM, 16 hours): < 30%

Cc1nc(NC(=O)c2ccccc2NC(=O)CCOCCOCCOCCNC(=O)CN2CCN(c3ccc(Nc4ncc5cc6n(c5n4)C4(CCCCC4)CNC6=O)nc3)CC2)sc1C [CPD-324, N-(4,5-Dimethylthiazol-2-yl)-2-(2-oxo-1-(4-(6-((6′-oxo-7′,8′-dihydro-6′H-spiro[cyclohexane-1,9′-pyrazino[1′,2′:1,5]pyrrolo[2,3-d]pyrimidin]-2′-yl)amino)pyridin-3-yl)piperazin-1-yl)-6,9,12-trioxa-3-azapentadecan-15-amido)benzamide]
CyclinD1 Degradation (10 μM) (cyclin D1): A (protein percentage degradation >= 80%)
inhibition at 10 µM (CDK4; Calu-1 cells, 16 hours): 50 to 80%

CC(=O)c1c(C)c2cnc(Nc3ccc(N4CCN(CCCCCCCCCCNc5cccc(C(=O)Nc6nc(C)c(C)s6)c5C)CC4)cn3)nc2n(C2CCCC2)c1=O [CPD-078, 3-((10-(4-(6-((6-Acetyl-8-cyclopentyl-5-methyl-7-oxo-7,8-dihydropyrido[2,3-d]pyrimidin-2-yl)amino)pyridin-3-yl)piperazin-1-yl)decyl)amino)-N-(4,5-dimethylthiazol-2-yl)-2-methylbenzamide]
CyclinD1 Degradation (200 nM) (cyclin D1): D (protein percentage degradation <30%)
inhibition at 0.2 µM (CDK4; Calu-1, 16 h): < 30%

CC(=O)c1c(C)c2cnc(Nc3ccc(N4CCN(CC(=O)NCCOCCOCCOCCNc5ccc(C)c(C(=O)Nc6nc(C)c(C)s6)c5)CC4)cn3)nc2n(C2CCCC2)c1=O [CPD-127, 5-((1-(4-(6-((6-Acetyl-8-cyclopentyl-5-methyl-7-oxo-7,8-dihydropyrido[2,3-d]pyrimidin-2-yl)amino)pyridin-3-yl)piperazin-1-yl)-2-oxo-6,9,12-trioxa-3-azatetradecan-14-yl)amino)-N-(4,5-dimethylthiazol-2-yl)-2-methylbenzamide]
CyclinD1 Degradation (200 nM) (cyclin D1): C (protein percentage degradation <50%, and >=30%)
inhibition at 0.2 µM (CDK4; Calu-1, 16 h): 30 to 50%

CC(=O)c1c(C)c2cnc(Nc3ccc(N4CCN(CC(=O)NCCOCCOCCNc5cccc(C(=O)Nc6nc(C)c(C)s6)c5C)CC4)cn3)nc2n(C2CCCC2)c1=O [CPD-104, 3-((2-(2-(2-(2-(4-(6-((6-Acetyl-8-cyclopentyl-5-methyl-7-oxo-7,8-dihydropyrido[2,3-d]pyrimidin-2-yl)amino)pyridin-3-yl)piperazin-1-yl)acetamido)ethoxy)ethoxy)ethyl)amino)-N-(4,5-dimethylthiazol-2-yl)-2-methylbenzamide]
CyclinD1 Degradation (200 nM) (cyclin D1): A (protein percentage degradation >=80%)
inhibition at 0.2 µM (CDK4; Calu-1 cells, 200 nM, 16 hours): 30 to 50%

CC(=O)c1c(C)c2cnc(Nc3ccc(N4CCN(CCNCCOCCOCCNc5cccc(C(=O)Nc6nc(C)c(C)s6)c5C)CC4)cn3)nc2n(C2CCCC2)c1=O [CPD-086, 3-((2-(2-(2-((2-(4-(6-((6-Acetyl-8-cyclopentyl-5-methyl-7-oxo-7,8-dihydropyrido[2,3-d]pyrimidin-2-yl)amino)pyridin-3-yl)piperazin-1-yl)ethyl)amino)ethoxy)ethoxy)ethyl)amino)-N-(4,5-dimethylthiazol-2-yl)-2-methylbenzamide]
CyclinD1 Degradation (200 nM) (cyclin D1): D (protein percentage degradation <30%)
inhibition at 0.2 µM (CDK4; Calu-1, 16 h): < 30%

CC(=O)c1c(C)c2cnc(Nc3ccc(N4CCN(CC(=O)NCCOCCOCCC(=O)Nc5ccccc5C(=O)Nc5ccc(C)cn5)CC4)cn3)nc2n(C2CCCC2)c1=O [CPD-061, 2-(3-(2-(2-(2-(4-(6-((6-Acetyl-8-cyclopentyl-5-methyl-7-oxo-7,8-dihydropyrido[2,3-d]pyrimidin-2-yl)amino)pyridin-3-yl)piperazin-1-yl)acetamido)ethoxy)ethoxy)propanamido)-N-(5-methylpyridin-2-yl)benzamide]
CyclinD1 Degradation (200 nM) (cyclin D1): A (protein percentage degradation >=80%)
inhibition at 0.2 µM (CDK4; Calu-1 cells, 200 nM, 16 hours): 50 to 80%

CC(=O)c1c(C)c2cnc(Nc3ccc(N4CCN(CC(=O)NCCCCCNC(=O)COc5ccc(C(=O)Nc6ncc(C)s6)c(C)c5)CC4)cn3)nc2n(C2CCCC2)c1=O [CPD-036, 4-(2-((5-(2-(4-(6-((6-Acetyl-8-cyclopentyl-5-methyl-7-oxo-7,8-dihydropyrido[2,3-d]pyrimidin-2-yl)amino)pyridin-3-yl)piperazin-1-yl)acetamido)pentyl)amino)-2-oxoethoxy)-2-methyl-N-(5-methylthiazol-2-yl)benzamide]
CyclinD1 Degradation (200 nM) (cyclin D1): D (protein percentage degradation <30%)
inhibition at 0.2 µM (CDK4; Calu-1 cells, 200 nM, 16 hours): < 30%

Cc1nc(NC(=O)c2ccccc2NC(=O)CCCNC(=O)CN2CCN(c3ccc(Nc4ncc5cc(C(=O)N(C)C)n(C6CCCC6)c5n4)nc3)CC2)sc1C [CPD-288, 7-Cyclopentyl-2-((5-(4-(2-((4-((2-((4,5-dimethylthiazol-2-yl)carbamoyl)phenyl)amino)-4-oxobutyl)amino)-2-oxoethyl)piperazin-1-yl)pyridin-2-yl)amino)-N,N-dimethyl-7H-pyrrolo[2,3-d]pyrimidine-6-carboxamide]
CyclinD1 Degradation (10 μM) (cyclin D1): A (protein percentage degradation >= 80%)
inhibition at 10 µM (CDK4; Calu-1 cells, 16 hours): 50 to 80%

CC(=O)c1c(C)c2cnc(Nc3ccc(N4CCN(CC(=O)NCCCCCC(=O)Nc5ccccc5C(=O)Nc5nc(C)c(C)s5)CC4)cn3)nc2n(C2CCCC2)c1=O [CPD-172, 2-(6-(2-(4-(6-((6-Acetyl-8-cyclopentyl-5-methyl-7-oxo-7,8-dihydropyrido[2,3-d]pyrimidin-2-yl)amino)pyridin-3-yl)piperazin-1-yl)acetamido)hexanamido)-N-(4,5-dimethylthiazol-2-yl)benzamide]
CyclinD1 Degradation (200 nM) (cyclin D1): D (protein percentage degradation <30%)
inhibition at 0.2 µM (CDK4; Calu-1 cells, 200 nM, 16 hours): 30 to 50%

CC(=O)c1c(C)c2cnc(Nc3ccc(N4CCN(CC(=O)NCCOCCOCCOCCOCCOCCNc5ccc(C(=O)Nc6ncc(-c7ccccc7)s6)c(C)c5)CC4)cn3)nc2n(C2CCCC2)c1=O [CPD-001, 4-((1-(4-(6-((6-Acetyl-8-cyclopentyl-5-methyl-7-oxo-7,8-dihydropyrido[2,3-d]pyrimidin-2-yl)amino)pyridin-3-yl)piperazin-1-yl)-2-oxo-6,9,12,15,18-pentaoxa-3-azaicosan-20-yl)amino)-2-methyl-N-(5-phenylthiazol-2-yl)benzamide]
CyclinD1 Degradation (200 nM) (cyclin D1): D (protein percentage degradation <30%)
inhibition at 0.2 µM (CDK4; Calu-1 cells, 200 nM, 16 hours): < 30%

COc1ccc(NC(=O)c2ccccc2NC(=O)CCOCCOCCNC(=O)CN2CCN(c3ccc(Nc4ncc5c(C)c(C(C)=O)c(=O)n(C6CCCC6)c5n4)nc3)CC2)nn1 [CPD-085, 2-(3-(2-(2-(2-(4-(6-((6-Acetyl-8-cyclopentyl-5-methyl-7-oxo-7,8-dihydropyrido[2,3-d]pyrimidin-2-yl)amino)pyridin-3-yl)piperazin-1-yl)acetamido)ethoxy)ethoxy)propanamido)-N-(6-methoxypyridazin-3-yl)benzamide]
CyclinD1 Degradation (200 nM) (cyclin D1): A (protein percentage degradation >=80%)
inhibition at 0.2 µM (CDK4; Calu-1 cells, 200 nM, 16 hours): > 80%

CC(=O)c1c(C)c2cnc(Nc3ccc(N4CCN(CC(=O)NCCOCCOCCC(=O)Nc5ccccc5C(=O)Nc5ccc(C#N)cn5)CC4)cn3)nc2n(C2CCCC2)c1=O [CPD-083, 2-(3-(2-(2-(2-(4-(6-((6-Acetyl-8-cyclopentyl-5-methyl-7-oxo-7,8-dihydropyrido[2,3-d]pyrimidin-2-yl)amino)pyridin-3-yl)piperazin-1-yl)acetamido)ethoxy)ethoxy)propanamido)-N-(5-cyanopyridin-2-yl)benzamide]
CyclinD1 Degradation (200 nM) (cyclin D1): A (protein percentage degradation >=80%)
inhibition at 0.2 µM (CDK4; Calu-1 cells, 200 nM, 16 hours): 50 to 80%

Source: patent publication US20250235543A1, “MODIFIED PROTEINS AND PROTEIN DEGRADERS” (Cullgen (Shanghai), Inc., priority 2021, published 2025)
